Values after ≈ are worked out from the molar mass of the structure shown. “Also recorded” adds a separate entry of the source. Residues, ends and D or L forms follow the SMILES beside them. *: point of attachment. NHPhenethyl = c1ccc(CCN*)cc1
Tests used:
[1] = test system: 24 h old biofilm of 6 different staphylococcal strains; test: Biofilm metabolic activity, Alamar blue reduction; format: cell-based, S. epidermidis, S. haemolyticus, S. aureus; conditions: 50 mg/L; mature biofilms from 4 out of the 6 strains tested
Method: The washed biofilms were subjected to treatment with antibiotics or SAMPs at different concentrations. Stock solutions of the tetracycline (Sigma Aldrich), vancomycin (Alpharma) and linezolid (Pfizer) were diluted in MHIIB to 5 mg/L, 50 mg/L and 500 mg/L, and rifampicin (Sigma Aldrich) was diluted in MHIIB to 0.01 mg/L, 0.1 mg/L and 1 mg/L. Trifluoroacetate salts of the SAMPs were dissolved in sterile water and diluted to 5 mg/L, 50 mg/L and 500 mg/L in MHIIB. 200 μl of antibiotics or SAMPs, in different concentrations, were added to each well and incubated for 24 h at 37° C. Positive controls were untreated biofilms only added 200 μl MHIIB. Negative controls were only 200 μl MHIIB, with no bacteria added.
We quantified the metabolic activity of biofilm with a slightly modified method previously described by Pettit et al. in Antimicrob. […] Briefly, the wells were washed twice with PBS. We then added 250 μl MHIIB with 5% Alamar blue (AB; Invitrogen, Carlsbad, Calif., USA) to each well. AB is a redox indicator which both fluoresces and changes colour in response to chemical reduction. The extent of reduction is a reflection of bacterial cell viability. After 1 h incubation at 37° C., absorbance was recorded at 570 and 600 nm using Versamax tuneable microplate reader (Molecular Devices, Sunnyvale, Calif., USA). […] The highest and lowest value of each run was excluded from the analyses, and the remaining 18 values were averaged.
We defined two levels of antimicrobial suppression of metabolic activity.

[2] = test system: six staphylococcal strains (2 S. epidermidis, 2 S. haemolyticus and 2 S. aureus); test: Susceptibility testing under planktonic growth condition, EUCAST breakpoints; format: cell-based; conditions: all 6 strains; EUCAST criteria
Method: The six staphylococcal strains (2 S. epidermidis, 2 S. haemolyticus and 2 S. aureus) used in this study were selected based on their previously known biofilm forming capacity (Table 1).
(§1) Bacteria were grown overnight at 37° C. in cation adjusted Mueller-Hinton II Broth (MHIIB).
We determined the MICs of oxacillin, gentamicin, tetracycline, vancomycin and linezolid using E-test (AB Biodisk, Solna, Sweden) and MICs of rifampicin using broth microdilution assay. Breakpoints were interpreted according to EUCAST criteria. We selected 3 different SAMPs (Compounds A, B and C; Lytix Biopharma, Tromsø, Norway—see FIG. 1) based on previously known antimicrobial activities, and determined their exact MICs with broth microdilution assay. All 3 SAMPs are tripeptides with two arginine residues providing their cationic moieties (FIG. 1). The lipophilic bulk is provided by a modified tryptophane derivate. The difference between the compounds is the size of the C-terminal modification; Compound A has the smallest and Compound B has the largest C-terminal modification (FIG. 1). The molecular weights of the SAMPs are in the range of 700-800 Dalton.

[3] = test system: S. haemolyticus TUH 51-07 biofilm; test: Biofilm imaging, LIVE/DEAD staining and confocal laser scanning microscopy; format: cell-based, Staphylococcus haemolyticus; conditions: 50 mg/L, 24 h treatment
Method: One ml aliquots of MHIIB-diluted overnight culture was used to grow S. haemolyticus TUH 51-07 biofilm on plastic coverslides (Thermanox, cellculture treated on one side, NUNC, Roskilde, Denmark) in 24-well dishes (Falcon 3047, Becton Dickinson, NJ, USA) for 24 h. The coverslides were then washed carefully with PBS, moved to a new plate and treated for 24 h with tetracycline 50 mg/L and 500 mg/L, vancomycin 50 mg/L and 500 mg/L, or Compound A 50 mg/L and 500 mg/L. The coverslides were washed again with […] and stained with a LIVE/DEAD kit (Invitrogen Molecular Probes, Eugene, Oreg., USA) following the manufacturer's instructions. This stain contains SYTO 9 (green fluorescent) and propidium iodide (PI; red fluorescent), both binding to DNA. When used alone, the SYTO 9 generally stains all bacteria in a population; both those with intact and those with damaged membranes. In contrast, PI penetrates only bacteria with damaged membranes, causing a reduction in the SYTO 9 stain green fluorescence when both dyes are present. We examined treated and untreated biofilms with a Leica TCS SP5 (Leica Microsystems CMS Gmbh, Mannheim, Germany) confocal laser scanning microscope (CLSM). Images were obtained using a 63×1.2 NA HCX PL APO water immersion lens. For detection of SYTO9 (green channel), we used the 488 nm line of the argon laser and a detection bandwidth of 495-515 nm. For PI detection (red channel), we used the 561 nm line and a detection bandwidth of 615-660 nm. The two fluorescent-signals were collected sequentially at 400 Hz. Image analyses and export was performed in Leica LAS AF version 1.8.2.

[4] = test system: Staphylococcus epidermidis TUH 08-16; test: microbe, parasite or virus in culture; conditions: Staphylococcus epidermidis, TUH0816
Method: as §1
(§2) We determined the MICs of oxacillin, gentamicin, tetracycline, vancomycin and linezolid using E-test (AB Biodisk, Solna, Sweden) and MICs of rifampicin using broth microdilution assay. Breakpoints were interpreted according to EUCAST criteria. […] All 3 SAMPs are tripeptides with two arginine residues providing their cationic moieties (FIG. 1). The lipophilic bulk is provided by a modified tryptophane derivate. […] The molecular weights of the SAMPs are in the range of 700-800 Dalton.

[5] = test system: Staphylococcus aureus PIA 9; test: microbe, parasite or virus in culture; conditions: Staphylococcus aureus, PIA9
Method: as §1, §2

[6] = test system: Staphylococcus haemolyticus TUH 51-07; test: microbe, parasite or virus in culture; conditions: Staphylococcus haemolyticus, TUH5107
Method: as §1, §2

[7] = test system: Staphylococcus haemolyticus TUH 51-03; test: microbe, parasite or virus in culture; conditions: Staphylococcus haemolyticus, TUH5103
Method: as §1, §2

[8] = test system: Staphylococcus aureus PIA90; test: microbe, parasite or virus in culture; conditions: Staphylococcus aureus, PIA90
Method: as §1, §2

[9] = test system: Staphylococcus epidermidis RP62A ATCC 35984; test: microbe, parasite or virus in culture; conditions: Staphylococcus epidermidis, ATCC35984
Method: as §1, §2

[10] = test system: S. aureus PIA9 biofilm; test: Biofilm metabolic activity, Alamar blue reduction; format: cell-based, Staphylococcus aureus
Method: Biofilm formation was induced in 96-well flat bottom microtitre plates (Nunclon Surface, NUNC, Roskilde, Denmark). First, overnight cultures were diluted 1:100 in MHIIB (S. epidermidis and S. haemolyticus) or tryptic soy broth (TSB) with 5% glucose and 5% NaCl (S. aureus). Two hundred of this bacterial suspension (10^7 cfu/ml) was added to each well and incubated for 24 h at 37° C. After 24 h the wells were carefully washed twice with phosphate-buffered saline (PBS) to remove planktonic bacteria. The washing procedure was evaluated by measuring metabolic activity of the PBS with the Alamar blue method, described in detail below. […]
We quantified the metabolic activity of biofilm with a slightly modified method previously described by Pettit et al. in Antimicrob. […] After 1 h incubation at 37° C., absorbance was recorded at 570 and 600 nm using Versamax tuneable microplate reader (Molecular Devices, Sunnyvale, Calif., USA). […]
The percent reduction of AB was calculated according to the manufacturer's formula (Invitrogen, Carlsbad, USA). We calculated mean and standard deviations (SD) of all repeated measurements. Pearson's two-tailed correlation between the AB method and the CV method (FIG. 2) was calculated on averaged data from all 6 staphylococcal strains. […]

[11] = test system: 42-77 S. epidermidis; format: cell-based; conditions: planctonic
Text: (§3) Minimum Inhibitory Concentration (MIC) on Planctonic Bacteria

[12] = test system: PIA 90 S. aureus; format: cell-based; conditions: planctonic
Text: as §3

[13] = test system: 8-16 S. epidermidis; format: cell-based; conditions: planctonic
Text: as §3

[14] = test system: 51-07 S. haemolyticus; format: cell-based; conditions: planctonic
Text: as §3

[15] = test system: 51-03 S. haemolyticus; format: cell-based; conditions: planctonic
Text: as §3

[16] = test system: PIA 9 S. aureus; format: cell-based; conditions: planctonic
Text: as §3

[17] = test system: 42-77 S. epidermidis biofilm; test: MBIC, biofilm survival rate by Alamar blue, Example 3; format: cell-based; conditions: 24 h
Method: (§4) Biofilm formation was induced in 96-well flat bottom microtitre plates (Nunclon Surface, NUNC). First, overnight cultures were diluted 1:100 in MHIIB (S. epidermidis and S. haemolyticus) or tryptic soy broth (TSB) with 5% glucose and 5% NaCl (S. aureus). […] of this bacterial suspension (10^7 cfu/ml) was added to each well and incubated for 24 h at 37° C. After 24 h the wells were carefully washed twice with phosphate-buffered saline (PBS) to remove planktonic bacteria. The washing procedure was carefully evaluated by measuring metabolic activity of the PBS with the Alamar blue method, described in detail below.
(§5) The washed biofilms were subjected to treatment with the Compounds at different concentrations.
(§6) Trifluoroacetate salts of the compounds were dissolved in sterile water and diluted to 5 mg/L, 50 mg/L and 500 mg/L in MHIIB. […] of the Compounds, in different concentrations, were added to each well and incubated for 24 h at 37° C. Positive controls were untreated biofilms only added 200 MHIIB. Negative controls were only 200 μl MHIIB, with no bacteria added.
(§7) The metabolic activity of the biofilm was quantified with a slightly modified method previously described by Pettit et al. Antimicrob. Agents Chemother. 2005; 49: 2612-7. Briefly, after the 24 h incubation with antimicrobial agents the wells were again washed twice with PBS and then added […] MHIIB with 5% Alamar blue (AB; Biosource, Camarillo, Calif., USA). AB is a redox indicator which both fluoresces and changes colour in response to chemical reduction. The extent of reduction is a reflection of bacterial cell viability. After 1 h incubation at 37° C., absorbance was recorded at 570 and 600 nm using Versamax tuneable microplate reader (Molecular Devices, Sunnyvale, Calif., USA). All assays were performed 3 times with 8 parallels. The highest and lowest value of each run was excluded from the analyses, and the remaining 18 values were averaged.

[18] = test system: 8-16 S. epidermidis biofilm; test: as above; format: cell-based; conditions: 24 h
Method: as §4, §5, §6, §7

[19] = test system: PIA 90 S. aureus biofilm; test: as above; format: cell-based; conditions: 24 h
Method: as §4, §5, §6, §7

[20] = test system: 51-03 S. haemolyticus biofilm; test: as above; format: cell-based; conditions: 24 h
Method: as §4, §5, §6, §7

[21] = test system: 51-07 S. haemolyticus biofilm; test: as above; format: cell-based; conditions: 24 h
Method: as §4, §5, §6, §7

[22] = test system: PIA 9 S. aureus biofilm; test: as above; format: cell-based; conditions: 24 h
Method: as §4, §5, §6, §7

Q: Which results are given for `CN[C@H](CC(C)C)C(=O)N[C@H]1C(=O)N[C@@H](CC(N)=O)C(=O)N[C@H]2C(=O)N[C@H]3C(=O)N[C@H](C(=O)N[C@H](C(=O)O)c4cc(O)cc(O)c4-c4cc3ccc4O)[C@H](O)c3ccc(c(Cl)c3)Oc3cc2cc(c3O[C@@H]2O[C@H](CO)[C@@H](O)[C@H](O)[C@H]2O[C@H]2C[C@](C)(N)[C@H](O)[C@H](C)O2)Oc2ccc(cc2Cl)[C@H]1O` [VAN, vancomycin]?
A: suppression of metabolic activity (AB reduction) [1]: strong suppression (A strong suppression was obtained if an agent, after adjusting for the negative control, at a certain concentration caused 75% reduction of AB compared to positive control); susceptibility under planktonic growth [2]: susceptible; also recorded: sensitive; LIVE/DEAD staining of biofilm cells (CLSM) [3]: predominantly green cells; also recorded: most bacteria were not killed; MIC [4]: 2 mg/L (≈ 1.38 µM); MIC [5]: 2 mg/L (≈ 1.38 µM); MIC [6]: 2 mg/L (≈ 1.38 µM); MIC [7]: 4 mg/L (≈ 2.76 µM); MIC [8]: 2 mg/L (≈ 1.38 µM); MIC [9]: 4 mg/L (≈ 2.76 µM); resistance of biofilm [10]: completely resistant

Q: Which results are given for `N=C(N)NCCC[C@H](NC(=O)[C@H](Cc1c[nH]c2ccccc12)NC(=O)[C@H](Cc1c[nH]c2ccccc12)NC(=O)[C@@H](N)CCCNC(=N)N)C(=O)NCCc1ccccc1` [ME 171 B, R-W-W-R-NH-CH2CH2Ph] (H-RWWR-NHPhenethyl)?
A: MIC [11]: 64 mg/L (≈ 79.4 µM); MIC [12]: 128 mg/L (≈ 159 µM); MIC [13]: 64 mg/L (≈ 79.4 µM); MIC [14]: 32 mg/L (≈ 39.7 µM); MIC [15]: 32 mg/L (≈ 39.7 µM); MIC [16]: 128 mg/L (≈ 159 µM); MBIC measured as survival rate ([17]; 5 μg/ml): 100%; MBIC measured as survival rate ([17]; 50 μg/ml): 90%; MBIC measured as survival rate ([17]; 500 μg/ml): 10%; MBIC measured as survival rate ([18]; 5 μg/ml): 100%; MBIC measured as survival rate ([18]; 50 μg/ml): 70%; MBIC measured as survival rate ([18]; 500 μg/ml): 4%; MBIC measured as survival rate ([19]; 5 μg/ml): 100%; MBIC measured as survival rate ([19]; 50 μg/ml): 80%; MBIC measured as survival rate ([19]; 500 μg/ml): 5%; MBIC measured as survival rate ([20]; 5 μg/ml): 100%; MBIC measured as survival rate ([20]; 50 μg/ml): 8%; MBIC measured as survival rate ([20]; 500 μg/ml): 9%; MBIC measured as survival rate ([21]; 5 μg/ml): 100%; MBIC measured as survival rate ([21]; 50 μg/ml): 60%; MBIC measured as survival rate ([21]; 500 μg/ml): 12%; MBIC measured as survival rate ([22]; 5 μg/ml): 100%; MBIC measured as survival rate ([22]; 50 μg/ml): 100%; MBIC measured as survival rate ([22]; 500 μg/ml): 90%

From patent US9085608B2, “Treatment of biofilms” (LYTIX BIOPHARMA AS, priority 2008, dated 2015)
